Results from US6358883B1, “Pesticidal and parasiticidal use of 1-aryl-1-(substituted thio, sulfinyl and sulfonyl)-2-nitroethane compounds” (American Cyanamid Company, priority 1998, dated 2002).
Where two headings read alike, the source gives them in different places.

Tests used:
[1] = system: Root-knot nematode, Meloidogyne incognita J2 larvae; conditions: potted tomato, scored 4 weeks following inoculation
Excerpt: Soil Nematicide Assay Targeting Root-knot Nematode, Meloidogyne Incognita on Potted Tomato
The test compound is solubilized in acetone and diluted with water to the required test concentration. Silty loam soil in a 3 inch pot with a 3-week-old tomato transplant is drenched with the test solution. Four thousand root-knot nematode Meloidogyne incognita J2 larvae are dispensed in a aqueous suspension onto the soil. The pots are kept in the greenhouse and 4 weeks following inoculation of the pots, plant roots are washed free of soil and scored for the degree of root galling using the root-knot galling index identified below.

[2] = system: M. incognita (Root Knot Nematode) larvae; assay: Evaluation of test compounds against M. incognita larvae in microtiter plate wells (movement score); type: in vivo; conditions: larvae scored for movement after 20-24 hours; note: key: A score of '9' indicates inactive worms with a straight, sticklike morphology; A score of '8' indicates inactive worms with a limp, curled or curved morphology; A score of '7' indicates dead/paralyzed worms after 72 hours
Method in brief: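 Newly emerged M. incognita larvae in S Medium (buffered salt solution), 50-65 worms per well, exposed to test compounds in sealed microtiter wells. Movement scored after 20-24 h incubation; wells with obviously dead/paralyzed larvae scored positive. A score of "7" denotes dead/paralyzed worms after […].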

[3] = system: C. elegans (Bristol strain); assay: Evaluation of test compounds against C. elegans (motility, 96-well plate); type: in vivo; design: key: 9=complete kill in 4 hours; 8=complete kill in 24 hours; 7=markedly reduced motility in approximately 95% of worms in 24 hours; 0=normal motility, same as controls; conditions: motility at 4 and 24 hours
Method in brief: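 Bristol-strain C. elegans in Na buffer added to wells containing dried compound (applied in 80% acetone) and incubated at 20 °C. Motility of adults and larvae scored subjectively but semi-quantitatively under a dissecting microscope at 4 and 24 h after immersion, plates tapped before reading.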

[4] = system: Spodoptera eridania, eggs-southern armyworm (SAW-Eggs); assay: Southern armyworm eggs (SAW-Eggs) treated diet test; type: in vivo; design: key: 0 = no effect; 1 = 10-25% kill; 2 = 26-35% kill; 3 = 36-45% kill; 4 = 46-55% kill; 5 = 56-65% kill; 6 = 66-75% kill; 7 = 76-85% kill; 8 = 86-99% kill; 9 = 100% kill; conditions: mortality after 7 days
Method in brief: (§1)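 Compounds dissolved at 10,000 ppm in 35% acetone/water, diluted with water, applied to artificial diet in wells and dried. Southern corn rootworm or southern armyworm eggs placed on treated diet under vented covers; mortality counted after 7 days.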

[5] = system: Diabrotica undecimpunctata howardi, eggs-southern corn rootworm (SCR-Eggs); assay: Southern corn rootworm eggs (SCR-Eggs) treated diet test; type: in vivo; design: key: 0 = no effect; 1 = 10-25% kill; 2 = 26-35% kill; 3 = 36-45% kill; 4 = 46-55% kill; 5 = 56-65% kill; 6 = 66-75% kill; 7 = 76-85% kill; 8 = 86-99% kill; 9 = 100% kill; conditions: mortality after 7 days
Method in brief: as §1

[6] = system: Spodoptera eridania, 2nd instar larvae, southern armyworm (SAW); assay: Southern armyworm (SAW) leaf dip test; type: in vivo; design: key: 0 = no effect; 1 = 10-25% kill; 2 = 26-35% kill; 3 = 36-45% kill; 4 = 46-55% kill; 5 = 56-65% kill; 6 = 66-75% kill; 7 = 76-85% kill; 8 = 86-99% kill; 9 = 100% kill
Method in brief: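 Compound is dissolved at 10,000 ppm in 35% acetone/water, then diluted with water. Lima bean leaves are dipped for 3 seconds, dried and placed with ten 2nd instar larvae on damp filter paper. Mortality, reduced feeding and molting interference are scored at 5 days.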

[7] = system: Diabrotica virgifera virgifera Leconte, 2nd instar western corn rootworm (WCR); assay: Western corn rootworm (WCR) soil test; type: in vivo; design: key: 0 = no effect; 1 = 10-25% kill; 2 = 26-35% kill; 3 = 36-45% kill; 4 = 46-55% kill; 5 = 56-65% kill; 6 = 66-75% kill; 7 = 76-85% kill; 8 = 86-99% kill; 9 = 100% kill
Method in brief: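 Compound in 35% acetone/water applied to talc at 1.25 mg active ingredient per jar (about 50 kg/ha), solvent evaporated, then mixed with millet seed and moist soil. Ten 2nd-instar larvae per jar; mortality counted after 5 days, missing larvae scored dead.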

[8] = system: Tetranychus urticae (OP-resistant strain), 2-spotted spider mite (TSM); assay: 2-spotted spider mite (TSM) plant dip test; type: in vivo; design: key: 0 = no effect; 1 = 10-25% kill; 2 = 26-35% kill; 3 = 36-45% kill; 4 = 46-55% kill; 5 = 56-65% kill; 6 = 66-75% kill; 7 = 76-85% kill; 8 = 86-99% kill; 9 = 100% kill; conditions: mortality after 2 days
Method in brief: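 OP-resistant mites (~100 per leaf) were transferred onto Sieva lima bean primary leaves about 2 h before treatment. Infested plants were dipped for 3 s in compound from a 10,000 ppm stock in 35% acetone/water, diluted with water. Mortality was counted after 2 days.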

[9] = system: Aphis gossypii, cotton aphid (CA); assay: Cotton aphid (CA) cotyledon dip test; type: in vivo; design: key: 0 = no effect; 1 = 10-25% kill; 2 = 26-35% kill; 3 = 36-45% kill; 4 = 46-55% kill; 5 = 56-65% kill; 6 = 66-75% kill; 7 = 76-85% kill; 8 = 86-99% kill; 9 = 100% kill; conditions: mortality after 5 days
Method in brief: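 Cotyledon-stage cotton plants infested overnight via a heavily infested leaf, then dipped in test solution (compound in 35% acetone/water, diluted with water) and dried. Mortality counted after 5 days.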

| Structure (SMILES) | Galling Index ([1]; Rate 10 ppm soil drench) | Galling Index ([1]; Rate 25 ppm soil drench) | Galling Index ([1]; Rate 50 ppm soil drench) | M. incognita (150 ppm) score [2] | Rating Against C. elegans (150 ppm) [3] | SAW Eggs (300 ppm) rating [4] | SCR Eggs (1000 ppm) rating [5] | SAW (300 ppm) rating [6] | WCR (50 ppm) rating [7] | TSM (300 ppm) rating [8] | CA (300 ppm) rating [9] |
| --- | --- | --- | --- | --- | --- | --- | --- | --- | --- | --- | --- |
| O=C(O)CSC(C[N+](=O)[O-])c1ccccc1 (stereo not drawn) [Example 1, {[alpha-(nitromethyl)benzyl]thio}-acetic acid] | 1 (10) | 0 (0) | 0 (0) | 9 | 9 | 0 | 0 | – | – | – | – |
| COc1ccc(C(C[N+](=O)[O-])SCc2ccccc2)cc1 (centres unmarked) [Example 52] | – | – | – | 9 | 9 | 0 | 0 | 0 | 4 (4 = 46-55% kill) | 0 | 0 |
| COc1cccc(C(C[N+](=O)[O-])SCc2ccccc2)c1 (centres unmarked) [Example 60] | – | – | – | 0 | 0 | 0 | 0 | 0 | 0 | 0 | 0 |
| COC(=O)CSC(C[N+](=O)[O-])c1ccc2ccccc2c1 (racemic) [Example 110] | – | – | – | 0 | 9 | 0 | 0 | 0 | 0 | 0 | 0 |
| CCOC(=O)CSC(C[N+](=O)[O-])c1ccc(OC(F)(F)F)cc1 (racemic) [Example 118] | – | – | – | 0 | 8 | 9 (9 = 100% kill) | 0 | 0 | 0 | 0 | 0 |
| COC(=O)CSC(C[N+](=O)[O-])c1ccc2c(c1)OCO2 (centres unmarked) [Example 18] | – | – | – | 9 | 9 | 0 | 0 | 0 | 0 | 0 | 9 (9 = 100% kill) |
| COC(=O)CSC(C[N+](=O)[O-])c1c(Cl)cccc1Cl (centres unmarked) [Example 131] | – | – | – | 9 | 7 | 0 | 0 | 0 | 0 | 0 | 0 |
| CCOC(=O)CSC(C[N+](=O)[O-])c1cccc(OC)c1 (centres unmarked) [Example 56] | – | – | – | 9 | 8 | 0 | 0 | 0 | 0 | 5 (5 = 56-65% kill) | 0 |
| CCCSC(C[N+](=O)[O-])c1c(Cl)cccc1Cl (centres unmarked) [Example 136] | – | – | – | 0 | 0 | 0 | 0 | 0 | 0 | 0 | 0 |
